According to ChEMBL document CHEMBL5729675, “Sulfonamide compound or salt thereof” (2023):

Biological target: Ribonucleotide reductase (Homo sapiens, UniProt P23921+Q7LG56)
Assay: Human RNR Inhibition Effect: The inhibitory activity against the ribonucleotide reduction reaction (hereinafter referred to as RNR reaction) of the test compound was determined by measuring the formation of deoxycytidine diphosphate (hereinafter referred to as dCDP) from cytidine diphosphate (hereinafter referred to as CDP) by the following method.Human M1 subunit and human M2 subunit (mutant …

Ribonucleotide reductase, sequence (P23921 whole entry, looked up): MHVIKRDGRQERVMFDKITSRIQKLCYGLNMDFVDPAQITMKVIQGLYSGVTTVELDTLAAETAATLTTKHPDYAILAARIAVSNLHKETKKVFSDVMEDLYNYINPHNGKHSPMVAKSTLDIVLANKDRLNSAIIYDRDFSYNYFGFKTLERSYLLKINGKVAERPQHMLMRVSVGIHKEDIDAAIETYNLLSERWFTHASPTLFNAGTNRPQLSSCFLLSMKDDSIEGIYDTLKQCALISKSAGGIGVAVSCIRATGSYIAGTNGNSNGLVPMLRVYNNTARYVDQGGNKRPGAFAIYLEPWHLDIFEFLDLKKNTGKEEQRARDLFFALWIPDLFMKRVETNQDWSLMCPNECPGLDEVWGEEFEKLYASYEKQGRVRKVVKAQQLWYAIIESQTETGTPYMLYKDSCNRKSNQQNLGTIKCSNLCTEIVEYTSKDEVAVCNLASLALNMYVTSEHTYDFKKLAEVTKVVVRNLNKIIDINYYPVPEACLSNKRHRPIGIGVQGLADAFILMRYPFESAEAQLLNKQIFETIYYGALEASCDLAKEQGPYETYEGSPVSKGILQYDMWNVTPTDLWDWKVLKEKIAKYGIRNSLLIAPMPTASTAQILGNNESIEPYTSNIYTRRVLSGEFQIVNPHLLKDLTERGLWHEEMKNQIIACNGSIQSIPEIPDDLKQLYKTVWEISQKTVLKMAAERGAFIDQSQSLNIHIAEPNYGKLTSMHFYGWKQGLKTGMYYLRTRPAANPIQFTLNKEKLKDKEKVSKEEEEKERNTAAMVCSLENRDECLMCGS
Ribonucleotide reductase, sequence (Q7LG56 whole entry, looked up): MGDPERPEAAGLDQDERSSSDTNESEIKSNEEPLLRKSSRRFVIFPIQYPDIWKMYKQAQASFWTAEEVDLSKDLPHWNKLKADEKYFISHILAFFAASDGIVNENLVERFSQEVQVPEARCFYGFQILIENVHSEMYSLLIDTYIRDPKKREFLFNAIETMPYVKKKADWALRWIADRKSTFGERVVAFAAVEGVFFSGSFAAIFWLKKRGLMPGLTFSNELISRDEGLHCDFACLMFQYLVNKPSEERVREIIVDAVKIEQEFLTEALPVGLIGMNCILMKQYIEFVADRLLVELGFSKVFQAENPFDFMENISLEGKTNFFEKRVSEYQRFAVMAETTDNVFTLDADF

## Cc1ccc(F)c([C@@H](C)[C@H](NS(=O)(=O)c2ccc([N+](=O)[O-])cc2)c2n[nH]c(=O)o2)c1C
  IC50: 270 nM

## Cc1ccc(F)c([C@@H](C)[C@H](NS(=O)(=O)c2ccc(Cl)c(-c3cnn(C)c3)c2)c2n[nH]c(=O)o2)c1C
  IC50: 220 nM

## COc1cc(Cl)ccc1S(=O)(=O)N[C@H](c1n[nH]c(=O)o1)[C@H](C)c1c(F)ccc(-c2ccc(Cl)nc2)c1C
  IC50: 340 nM

## COc1cc(Cl)ccc1S(=O)(=O)N[C@H](c1n[nH]c(=O)o1)[C@H](C)c1c(F)ccc(-c2cnn(C(F)F)c2)c1C
  IC50: 160 nM

## COC(=O)c1cc(S(=O)(=O)N[C@H](c2n[nH]c(=S)o2)[C@H](C)c2cccc3c2CCC3)ccc1Cl
  IC50: 830 nM

## Cc1ccc(F)c([C@@H](C)[C@H](NS(=O)(=O)c2cc(F)c(Cl)cc2C(N)=O)c2n[nH]c(=O)o2)c1C
  IC50: 120 nM

## COc1ccc(-c2ccc(F)c([C@@H](C)[C@H](NS(=O)(=O)c3ccc(Cl)cc3OC)c3n[nH]c(=O)o3)c2C)cc1
  IC50: 300 nM

## Cc1cc(S(=O)(=O)N[C@H](c2n[nH]c(=O)o2)[C@H](C)c2c(F)ccc(C)c2C)c(C(N)=O)cc1Cl
  IC50: 100 nM

## COc1cc(Cl)ccc1S(=O)(=O)N[C@H](c1n[nH]c(=O)o1)[C@H](C)c1c(F)ccc(-c2ccc(Cl)cc2)c1C
  IC50: 490 nM

## COc1cc(Cl)ccc1S(=O)(=O)N[C@H](c1n[nH]c(=O)o1)[C@H](C)c1c(F)ccc(-c2cnn(C3CCC3)c2)c1C
  IC50: 220 nM

## Cc1ccc(F)c([C@@H](C)[C@H](NS(=O)(=O)c2ccc(Cl)cc2C(=O)NO)c2n[nH]c(=O)o2)c1C
  IC50: 70 nM

## COc1cc(Cl)ccc1S(=O)(=O)N[C@H](c1n[nH]c(=O)o1)[C@H](C)c1c(F)ccc(-c2cc(F)cc(F)c2)c1C
  IC50: 940 nM

## Cc1ccc(F)c([C@@H](C)[C@H](NS(=O)(=O)c2cccc3c2OCCN3)c2n[nH]c(=O)o2)c1C
  IC50: 420 nM

## COc1cc(Cl)ccc1S(=O)(=O)N[C@H](c1n[nH]c(=O)o1)[C@H](C)c1c(F)ccc(-c2cncc(C(=O)N3CCOCC3)c2)c1C
  IC50: 420 nM

## COc1ccc(-c2cc(S(=O)(=O)N[C@H](c3n[nH]c(=O)o3)[C@H](C)c3c(F)ccc(C)c3C)ccc2Cl)cc1
  IC50: 720 nM

## COc1cc(N)ccc1S(=O)(=O)N[C@H](c1n[nH]c(=O)o1)[C@H](C)c1c(F)ccc2ccccc12
  IC50: 260 nM

## COc1cc(Cl)ccc1S(=O)(=O)N[C@H](c1n[nH]c(=O)o1)[C@H](C)c1c(F)ccc(-c2cc[nH]n2)c1C
  IC50: 290 nM

## Cc1c(Br)ccc(F)c1[C@@H](C)[C@H](NS(=O)(=O)c1ccc(Cl)c2c1OCCC2(C)N)c1n[nH]c(=O)o1 (stereo partly drawn)
  IC50: 60 nM

## Cc1ccc(F)c([C@@H](C)[C@H](NS(=O)(=O)c2cccc3c2CCNC3)c2n[nH]c(=O)o2)c1C
  IC50: 760 nM

## COc1cc(Cl)ccc1S(=O)(=O)N[C@H](c1n[nH]c(=O)o1)[C@H](C)c1c(F)ccc(-c2cnn(C)c2)c1C
  IC50: 90 nM

## COc1cc(C(N)=O)c(S(=O)(=O)N[C@H](c2n[nH]c(=O)o2)[C@H](C)c2c(F)ccc(C)c2C)cc1OC
  IC50: 360 nM

## Cc1c(Cl)ccc(F)c1[C@@H](C)[C@H](NS(=O)(=O)c1ncc(Br)cc1C(N)=O)c1n[nH]c(=O)o1
  IC50: 70 nM

## Cc1ccc(F)c([C@@H](C)[C@H](NS(=O)(=O)c2ccc(Cl)c3c2OCCC3N)c2n[nH]c(=O)o2)c1C (stereo partly drawn)
  IC50: 130 nM

## COc1cc(Cl)ccc1S(=O)(=O)N[C@H](c1n[nH]c(=O)o1)[C@H](C)c1c(F)ccc(-c2cn(C)nc2C)c1C
  IC50: 280 nM

## Cc1ccc(F)c([C@@H](C)[C@H](NS(=O)(=O)c2ccc(Cl)c3c2OCC(=O)N3CCO)c2n[nH]c(=O)o2)c1C
  IC50: 130 nM

## COc1cc(Cl)ccc1S(=O)(=O)N[C@H](c1n[nH]c(=O)o1)[C@H](C)c1c(F)ccc(-c2cnc3c(c2)OCCN3C)c1C
  IC50: 220 nM

## Cc1ccc(F)c([C@@H](C)[C@H](NS(=O)(=O)c2cc(OCC(F)F)ccc2C(N)=O)c2n[nH]c(=O)o2)c1C
  IC50: 70 nM

## Cc1ccc(F)c([C@@H](C)[C@H](NS(=O)(=O)c2ccc(Cl)cc2C(=O)NOCc2ccccc2)c2n[nH]c(=O)o2)c1C
  IC50: 910 nM

## Cc1c(-c2cnn(C)c2)ccc(F)c1[C@@H](C)[C@H](NS(=O)(=O)c1ccc(Cl)cc1C(N)=O)c1n[nH]c(=O)o1
  IC50: 170 nM

## COc1cc(N)ccc1S(=O)(=O)N[C@H](c1n[nH]c(=O)o1)[C@H](C)c1cccc2c1CCC2
  IC50: 730 nM

## COc1cc(C#N)ccc1S(=O)(=O)N[C@H](c1n[nH]c(=O)o1)[C@H](C)c1c(F)ccc(C)c1C
  IC50: 90 nM

## C[C@H](c1c(F)ccc2ccccc12)[C@H](NS(=O)(=O)c1ccc(Cl)c2c1OCCC2F)c1n[nH]c(=O)o1 (stereo partly drawn)
  IC50: 160 nM

## CNC(=O)c1cc(Cl)ccc1S(=O)(=O)N[C@H](c1n[nH]c(=O)o1)[C@H](C)c1c(F)ccc(C)c1C
  IC50: 370 nM

## Cc1ccc(F)c([C@@H](C)[C@H](NS(=O)(=O)c2c(F)cc(Cl)cc2C(N)=O)c2n[nH]c(=O)o2)c1C
  IC50: 140 nM

## COc1cc(Cl)ccc1S(=O)(=O)N[C@H](c1n[nH]c(=O)o1)[C@H](C)c1c(F)ccc(-c2c[nH]nc2C)c1C
  IC50: 180 nM

## Cc1ccc(F)c([C@@H](C)[C@H](NS(=O)(=O)c2ccc(C#N)cc2)c2n[nH]c(=O)o2)c1C
  IC50: 410 nM

## Cc1ccc(F)c([C@@H](C)[C@H](NS(=O)(=O)c2c(Cl)cc(Cl)cc2C(N)=O)c2n[nH]c(=O)o2)c1C
  IC50: 420 nM

## COc1cc(Cl)ccc1S(=O)(=O)N[C@H](c1n[nH]c(=O)o1)[C@H](C)c1c(F)ccc(-c2ccc(N3CCCCC3)nc2)c1C
  IC50: 600 nM

## Cc1ccc(F)c([C@@H](C)[C@H](NS(=O)(=O)c2ccc(Cl)cc2N)c2n[nH]c(=O)o2)c1C
  IC50: 230 nM

## Cc1ccc(F)c([C@@H](C)[C@H](NS(=O)(=O)c2ccc(Br)cc2C(N)=O)c2n[nH]c(=S)o2)c1C
  IC50: 130 nM

## Cc1ccc(F)c([C@@H](C)[C@H](NS(=O)(=O)c2ccc(Cl)c3c2OCCN3)c2n[nH]c(=O)o2)c1C
  IC50: 100 nM

## COc1c(S(=O)(=O)N[C@H](c2n[nH]c(=O)o2)[C@H](C)c2c(F)ccc(C)c2C)ccc(Cl)c1C(C)=O
  IC50: 110 nM

## Cc1ccc(F)c([C@@H](C)[C@H](NS(=O)(=O)c2cc([N+](=O)[O-])c(Cl)cc2C(N)=O)c2n[nH]c(=O)o2)c1C
  IC50: 130 nM

## Cc1ccc(F)c([C@@H](C)[C@H](NS(=O)(=O)c2ccc(Br)c(C#N)c2)c2n[nH]c(=O)o2)c1C
  IC50: 640 nM

## COc1ccc(-c2ccc(F)c([C@@H](C)[C@H](NS(=O)(=O)c3ccc(Cl)cc3OC)c3n[nH]c(=O)o3)c2C)cn1
  IC50: 260 nM

## COc1cc(Cl)ccc1S(=O)(=O)N[C@H](c1n[nH]c(=O)o1)[C@H](C)c1c(F)ccc(-c2cn[nH]c2)c1C
  IC50: 160 nM

## Cc1ccc(F)c([C@@H](C)[C@H](NS(=O)(=O)c2ccc(Cl)c(C(=O)N(C)C)n2)c2n[nH]c(=O)o2)c1C
  IC50: 80 nM

## COc1cc(N)ccc1S(=O)(=O)N[C@H](c1n[nH]c(=O)o1)[C@H](C)c1cccc2cccc(C)c12
  IC50: 510 nM

## COc1cc(Cl)ccc1S(=O)(=O)N[C@H](c1noc(=O)[nH]1)[C@H](C)c1c(F)ccc(C)c1C
  IC50: 250 nM

## COc1cc(Cl)ccc1S(=O)(=O)N[C@H](c1n[nH]c(=O)o1)[C@H](C)c1c(F)ccc(-c2ccc(N3CCOCC3)nc2)c1C
  IC50: 190 nM

## COc1cc(S(=O)(=O)N[C@H](c2n[nH]c(=O)o2)[C@H](C)c2c(F)ccc(C)c2C)c(C(N)=O)cc1Cl
  IC50: 100 nM

## C[C@H](c1cccc2c1CCCC2)[C@H](NS(=O)(=O)c1ccc(N)cc1)c1n[nH]c(=O)o1
  IC50: 850 nM

## Cc1ccc(F)c([C@@H](C)[C@H](NS(=O)(=O)c2ccc(Cl)cc2C(N)=S)c2n[nH]c(=O)o2)c1C
  IC50: 50 nM

## CCn1cc(-c2ccc(F)c([C@@H](C)[C@H](NS(=O)(=O)c3ccc(Cl)cc3OC)c3n[nH]c(=O)o3)c2C)cn1
  IC50: 170 nM

## Cc1ccc(F)c([C@@H](C)[C@@H](c2n[nH]c(=O)o2)N(C)S(=O)(=O)c2ccc(Cl)cc2C(N)=O)c1C
  IC50: 80 nM

## COc1cc(Cl)ccc1S(=O)(=O)N[C@H](c1n[nH]c(=O)o1)[C@H](C)c1c(F)ccc(-c2cccnc2)c1C
  IC50: 340 nM

## CC(=O)Nc1cc(Cl)ccc1S(=O)(=O)N[C@H](c1n[nH]c(=O)o1)[C@H](C)c1c(F)ccc(C)c1C
  IC50: 440 nM

## COC(=O)c1cc(Cl)c(N)cc1S(=O)(=O)N[C@H](c1n[nH]c(=O)o1)[C@H](C)c1c(F)ccc(C)c1C
  IC50: 660 nM

## COC(=O)c1c(Cl)ccc(S(=O)(=O)N[C@H](c2n[nH]c(=S)o2)[C@H](C)c2cccc3c2CCC3)c1Cl
  IC50: 310 nM

## COc1ncc(-c2ccc(F)c([C@@H](C)[C@H](NS(=O)(=O)c3ccc(Cl)cc3OC)c3n[nH]c(=O)o3)c2C)cn1
  IC50: 280 nM

## Cc1ccc(F)c([C@@H](C)[C@H](NS(=O)(=O)c2ccccc2C(=O)NO)c2n[nH]c(=O)o2)c1C
  IC50: 310 nM

## Cc1cccc([C@@H](C)[C@H](NS(=O)(=O)c2ccc(Cl)c3c2OCC=C3)c2n[nH]c(=O)o2)c1C
  IC50: 790 nM

## Cc1ccc(F)c([C@@H](C)[C@H](NS(=O)(=O)c2ccc(Br)cc2OC(F)(F)F)c2n[nH]c(=O)o2)c1C
  IC50: 100 nM

## COc1ccccc1-c1ccc(C(N)=O)c(S(=O)(=O)N[C@H](c2n[nH]c(=O)o2)[C@H](C)c2c(F)ccc(C)c2C)c1
  IC50: 250 nM

## COc1cc(Cl)ccc1S(=O)(=O)N[C@H](c1n[nH]c(=O)o1)[C@H](C)c1c(F)ccc(-c2cnn(C3CC3)c2)c1C
  IC50: 220 nM

## COc1cc(Cl)ccc1S(=O)(=O)N[C@H](c1n[nH]c(=O)o1)[C@H](C)c1c(F)ccc(-c2cncnc2)c1C
  IC50: 540 nM

## Cc1ccc(F)c([C@@H](C)[C@H](NS(=O)(=O)c2cc(-c3nnco3)ccc2C(N)=O)c2n[nH]c(=O)o2)c1C
  IC50: 90 nM

## Cc1ccc(F)c([C@@H](C)[C@H](NS(=O)(=O)c2ccc(Cl)c(C(=O)N3CCC(N)C3)n2)c2n[nH]c(=O)o2)c1C (stereo partly drawn)
  IC50: 150 nM

## CC(=O)N1CCOc2c(S(=O)(=O)N[C@H](c3n[nH]c(=O)o3)[C@H](C)c3cccc(C)c3C)ccc(Cl)c21
  IC50: 560 nM

## Cc1c(Cl)ccc(F)c1[C@@H](C)[C@H](NS(=O)(=O)c1ccc(Cl)c2c1OCCN2C)c1n[nH]c(=O)o1
  IC50: 130 nM

## COc1cc(C(N)=O)ccc1S(=O)(=O)N[C@H](c1n[nH]c(=O)o1)[C@H](C)c1c(F)ccc(C)c1C
  IC50: 420 nM

## Cc1ccc(F)c([C@@H](C)[C@H](NS(=O)(=O)c2cc3c(cc2C(N)=O)OCCO3)c2n[nH]c(=O)o2)c1C
  IC50: 90 nM

## Cc1c(Br)ccc(F)c1[C@@H](C)[C@H](NS(=O)(=O)c1ncc(Cl)cc1C(N)=O)c1n[nH]c(=O)o1
  IC50: 60 nM
